Data reported in patent publication US20260144776A1, “COMBINATION THERAPY FOR A DOPAMINE AGONIST” (priority 2017, published 2026).

Columns and labels:
[1] = test system: depressive symptoms in patients with PD; details: 12 weeks, 296 PD patients, pramipexole 0.125 to 1.0 mg/kg; placebo 4.0 (SE 0.5), p=0.01; cited from earlier work
[2] = test system: patients with a DSM-III-R diagnosis of major depression; details: pramipexole 5.0 mg group, cited from earlier work
[3] = test system: humans; details: in vivo
Procedure: The study was single center, single-blind study.
Once a subject had reached his/her first intolerable dose (FID-1), upward dose escalation was discontinued.
All other provisions of the protocol remained unchanged. Assessments were the same as those planned for the dose escalation day.
On each study day, subjects were followed up for up to 8 hours following drug administration for AEs, vital signs, ECGs. In addition, a laboratory panel was taken at screening and at the end of the study.

[4] = test system: animal behavior simulating symptoms of depression; details: high doses of pramipexole; cited from earlier work

For `CCCN[C@H]1CCc2nc(N)sc2C1` [Pramipexole, (S)-6-propylamino-4,5,6,7-tetrahydro-1,3-benzothiazole-2-amine], the “BDI scores decreased by an adjusted” value [1] is given as 5.9 (SE 0.5), the “patients who discontinued treatment prematurely” value ([2]; mainly because of adverse events) is given as 57.6% and the “improvement at week 8 (change from baseline)” value ([2]; best improvement, no p value against placebo because of drop-out rate) is given as −15.00. The “patients who reported nausea” value [2] was 76%, the “patients who reported vomiting” value [2] was 39% and the dose limiting toxicity [3] was “gastro-intestinal adverse events”. The “activity in tests of animal behavior simulating symptoms of depression” value [4] was “active”.
